Data reported in patent US12564193B2, “Isoxazoline-substituted benzamide derivative, and preparation method therefor and use thereof” (SHANDONG UNITED PESTICIDE INDUSTRY CO., LTD., priority 2020, dated 2026).
Read-outs that look alike come from different tables or passages of the source.

Assays:
Format in all cases: in vivo
[1] = tested on: Plutella xylostella; test: Insecticidal activity, spray on pre-infested radish plants: Plutella xylostella; conditions: Plutella xylostella, 144 h, read-out: fatality rate on Plutella xylostella
How it was run: (§1)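 First, 30-40 pests are transferred onto 12-15 day old radish plants on a cut leaf, and the soil is covered with sand. The compound solution is then sprayed and left to dry for 1 hour before a mesh cover is fitted. Insect mortality is read visually after 6 days at 25° C and 70% relative humidity.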

[2] = tested on: Tetranychus cinnabarinus; test: Acaricidal activity, slide immersion of female adult mites: Tetranychus cinnabarinus; conditions: read-out: fatality rate on Tetranychus cinnabarinus
How it was run: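 Female adult mites stuck dorsally on tape on slides (4 rows of 10), dipped 5 s in test solution, excess blotted, incubated 24 h. Mites with immobile feet on brush touch scored dead; fatality rate calculated.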

[3] = tested on: Mythimna separata; test: Insecticidal activity, spray on pre-infested radish plants: Mythimna separata; conditions: Mythimna separata, 144 h, read-out: fatality rate on Mythimna separata
How it was run: as §1

[4] = tested on: Pieris rapae; test: Insecticidal activity, spray on pre-infested radish plants: Pieris rapae; conditions: 144 h, read-out: fatality rate on Pieris rapae
How it was run: (§2)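 Radish plants (12-15 days), 30-40 pests/plant via leaf cutting, soil sand-covered; spray compound in acetone/methanol/DMSO; dry 1 h; mesh cover; 25° C, 70% RH, 6 d; visual mortality; three replicates.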

[5] = tested on: Chilo suppressalis; test: Insecticidal activity, spray on pre-infested radish plants: Chilo suppressalis; conditions: Chilo suppressalis, 144 h, read-out: fatality rate on Chilo suppressalis
How it was run: as §1

[6] = tested on: Frankliniella occidentalis; test: Insecticidal activity, spray on pre-infested radish plants: Frankliniella occidentalis; conditions: Frankliniella occidentalis, 144 h, read-out: fatality rate on Frankliniella occidentalis
How it was run: as §1

[7] = tested on: Cnaphalocrocis medinalis; test: Insecticidal activity, spray on pre-infested radish plants: Cnaphalocrocis medinalis; conditions: 144 h, read-out: fatality rate on Cnaphalocrocis medinalis
How it was run: as §2

[8] = tested on: Spodoptera litura; test: Insecticidal activity, spray on pre-infested radish plants: Spodoptera litura; conditions: 144 h, read-out: fatality rate on Spodoptera litura
How it was run: as §1

[9] = dose 1 ppm, immersion 5 seconds, checked after 24 hours
[10] = dose 10 ppm, immersion 5 seconds, checked after 24 hours
[11] = dose 25 ppm, immersion 5 seconds, checked after 24 hours

Cc1cc(C2=NOC(c3cc(Cl)c(F)c(Cl)c3)(C(F)(F)F)C2)ccc1C(=O)NCCc1cnccc1C(F)(F)F (stereo not drawn) [Compound 17]
> 80%: pest or weed control at 0.1 ppm [1] | pest or weed control at 1 ppm [1] | pest or weed control at 10 ppm [1] | pest or weed control at 1 ppm ([2]; 24 h) | pest or weed control at 10 ppm ([2]; 24 h) | pest or weed control at 25 ppm ([2]; 24 h) | pest or weed control at 0.1 ppm [3] | pest or weed control at 1 ppm [3] | pest or weed control at 10 ppm [3] | pest or weed control at 0.1 ppm [4] | pest or weed control at 1 ppm [4] | pest or weed control at 10 ppm [4] | pest or weed control at 0.1 ppm [5] | pest or weed control at 1 ppm [5] | pest or weed control at 10 ppm [5] | pest or weed control at 1 ppm [6] | pest or weed control at 10 ppm [6] | pest or weed control at 25 ppm [6] | pest or weed control at 0.1 ppm [7] | pest or weed control at 1 ppm [7] | pest or weed control at 10 ppm [7] | pest or weed control at 0.1 ppm [8] | pest or weed control at 1 ppm [8] | pest or weed control at 10 ppm [8]

Cc1cc(C2=NOC(c3cc(F)c(F)c(F)c3)(C(F)(F)F)C2)ccc1C(=O)NCCc1cnccc1C(F)(F)F (stereo not drawn) [Compound 18]
> 80%: pest or weed control at 0.1 ppm ([1]; dose 0.1 ppm, spray, 6 days) | pest or weed control at 1 ppm ([1]; dose 1 ppm, spray, 6 days) | pest or weed control at 10 ppm ([1]; dose 10 ppm, spray, 6 days) | pest or weed control at 1 ppm [2, 9] | pest or weed control at 10 ppm [2, 10] | pest or weed control at 25 ppm [2, 11] | pest or weed control at 0.1 ppm ([3]; dose 0.1 ppm, spray, 6 days) | pest or weed control at 1 ppm ([3]; dose 1 ppm, spray, 6 days) | pest or weed control at 10 ppm ([3]; dose 10 ppm, spray, 6 days) | pest or weed control at 0.1 ppm ([4]; dose 0.1 ppm, spray, 6 days) | pest or weed control at 1 ppm ([4]; dose 1 ppm, spray, 6 days) | pest or weed control at 10 ppm ([4]; dose 10 ppm, spray, 6 days) | pest or weed control at 0.1 ppm ([5]; dose 0.1 ppm, spray, 6 days) | pest or weed control at 1 ppm ([5]; dose 1 ppm, spray, 6 days) | pest or weed control at 10 ppm ([5]; dose 10 ppm, spray, 6 days) | pest or weed control at 1 ppm ([6]; dose 1 ppm, spray, 6 days) | pest or weed control at 10 ppm ([6]; dose 10 ppm, spray, 6 days) | pest or weed control at 25 ppm ([6]; dose 25 ppm, spray, 6 days) | pest or weed control at 0.1 ppm ([7]; dose 0.1 ppm, spray, 6 days) | pest or weed control at 1 ppm ([7]; dose 1 ppm, spray, 6 days) | pest or weed control at 10 ppm ([7]; dose 10 ppm, spray, 6 days) | pest or weed control at 0.1 ppm ([8]; dose 0.1 ppm, spray, 6 days) | pest or weed control at 1 ppm ([8]; dose 1 ppm, spray, 6 days) | pest or weed control at 10 ppm ([8]; dose 10 ppm, spray, 6 days)

Cc1cc(C2=NOC(c3cc(Cl)c(F)c(Cl)c3)(C(F)(F)F)C2)ccc1C(=O)NCCc1ncc(C(F)(F)F)cc1Cl (stereo not drawn) [Compound 19]
> 80%: pest or weed control at 0.1 ppm [1] | pest or weed control at 1 ppm [1] | pest or weed control at 10 ppm [1] | pest or weed control at 1 ppm ([2]; 24 h) | pest or weed control at 10 ppm ([2]; 24 h) | pest or weed control at 25 ppm ([2]; 24 h) | pest or weed control at 0.1 ppm [3] | pest or weed control at 1 ppm [3] | pest or weed control at 10 ppm [3] | pest or weed control at 0.1 ppm [4] | pest or weed control at 1 ppm [4] | pest or weed control at 10 ppm [4] | pest or weed control at 0.1 ppm [5] | pest or weed control at 1 ppm [5] | pest or weed control at 10 ppm [5] | pest or weed control at 1 ppm [6] | pest or weed control at 10 ppm [6] | pest or weed control at 25 ppm [6] | pest or weed control at 0.1 ppm [7] | pest or weed control at 1 ppm [7] | pest or weed control at 10 ppm [7] | pest or weed control at 0.1 ppm [8] | pest or weed control at 1 ppm [8] | pest or weed control at 10 ppm [8]

Cc1cc(C2=NOC(c3cc(F)c(F)c(F)c3)(C(F)(F)F)C2)ccc1C(=O)NCCc1ncc(C(F)(F)F)cc1Cl (stereo not drawn) [Compound 20]
> 80%: pest or weed control at 0.1 ppm ([1]; dose 0.1 ppm, spray, 6 days) | pest or weed control at 1 ppm ([1]; dose 1 ppm, spray, 6 days) | pest or weed control at 10 ppm ([1]; dose 10 ppm, spray, 6 days) | pest or weed control at 1 ppm [2, 9] | pest or weed control at 10 ppm [2, 10] | pest or weed control at 25 ppm [2, 11] | pest or weed control at 0.1 ppm ([3]; dose 0.1 ppm, spray, 6 days) | pest or weed control at 1 ppm ([3]; dose 1 ppm, spray, 6 days) | pest or weed control at 10 ppm ([3]; dose 10 ppm, spray, 6 days) | pest or weed control at 0.1 ppm ([4]; dose 0.1 ppm, spray, 6 days) | pest or weed control at 1 ppm ([4]; dose 1 ppm, spray, 6 days) | pest or weed control at 10 ppm ([4]; dose 10 ppm, spray, 6 days) | pest or weed control at 0.1 ppm ([5]; dose 0.1 ppm, spray, 6 days) | pest or weed control at 1 ppm ([5]; dose 1 ppm, spray, 6 days) | pest or weed control at 10 ppm ([5]; dose 10 ppm, spray, 6 days) | pest or weed control at 1 ppm ([6]; dose 1 ppm, spray, 6 days) | pest or weed control at 10 ppm ([6]; dose 10 ppm, spray, 6 days) | pest or weed control at 25 ppm ([6]; dose 25 ppm, spray, 6 days) | pest or weed control at 0.1 ppm ([7]; dose 0.1 ppm, spray, 6 days) | pest or weed control at 1 ppm ([7]; dose 1 ppm, spray, 6 days) | pest or weed control at 10 ppm ([7]; dose 10 ppm, spray, 6 days) | pest or weed control at 0.1 ppm ([8]; dose 0.1 ppm, spray, 6 days) | pest or weed control at 1 ppm ([8]; dose 1 ppm, spray, 6 days) | pest or weed control at 10 ppm ([8]; dose 10 ppm, spray, 6 days)
